Where two headings read alike, the source gives them in different places.
Tests used:
[1] = tested on: stress model induced in mice; settings: for Corticosterone / IL-1: Table 22
[2] = STRESS + IMMP, 10 ng/dose i.p., Table 21

For Peptide LEDGPKFL + Zinc [IMMP], the “Body weight (control percent)” value (LR.4 lymphoma; IMMP alone, no tumor, week 4) was 100 ± 3%, the “Survival (percent of live animals)” value (LR.4 lymphoma; IMMP alone, no tumor, week 4) was 100% and the “Body weight (control percent)” value (LR.4 lymphoma; IMMP alone, no tumor, week 5) was 100 ± 4%. The “Survival (percent of live animals)” value (LR.4 lymphoma; IMMP alone, no tumor, week 5) was 100%, the “Body weight (control percent)” value (LR.4 lymphoma; IMMP alone, no tumor, week 6) was 100 ± 3% and the “Survival (percent of live animals)” value (LR.4 lymphoma; IMMP alone, no tumor, week 6) was 100%. For the same substance, the “Body weight (control percent)” value (LR.4 lymphoma; IMMP alone, no tumor, week 7) was 100 ± 5%, the “Survival (percent of live animals)” value (LR.4 lymphoma; IMMP alone, no tumor, week 7) was 100% and the “Survival (percent of live animals)” value (LR.4 lymphoma; IMMP alone, no tumor, week 8) was 100%. The “Survival (percent of live animals)” value (LR.4 lymphoma; IMMP alone, no tumor, week 9) was 100%, the “Survival (percent of live animals)” value (LR.4 lymphoma; IMMP alone, no tumor, week 10) was 100% and the “Survival (percent of live animals)” value (LR.4 lymphoma; IMMP alone, no tumor, week 11) was 100%. The “Survival (percent of live animals)” value (LR.4 lymphoma; IMMP alone, no tumor, week 12) was 100%, the “Survival (percent of live animals)” value (LR.4 lymphoma; IMMP alone, no tumor, week 13) was 100% and the “Survival (percent of live animals)” value (LR.4 lymphoma; IMMP alone, no tumor, week 14) was 100%. For the same substance, the “Body weight (control percent)” value (LR.4 lymphoma; LR.4 + IMMP, week 0) was 100 ± 2%, the “Survival (percent of live animals)” value (LR.4 lymphoma; LR.4 + IMMP, week 0) was 100% and the “Body weight (control percent)” value (LR.4 lymphoma; LR.4 + IMMP, week 1) was 101 ± 4%. For the same substance, the “Survival (percent of live animals)” value (LR.4 lymphoma; LR.4 + IMMP, week 1) was 100%, the “Body weight (control percent)” value (LR.4 lymphoma; LR.4 + IMMP, week 2) was 116 ± 6 % and the “Survival (percent of live animals)” value (LR.4 lymphoma; LR.4 + IMMP, week 2) was 100%. The “Body weight (control percent)” value (LR.4 lymphoma; LR.4 + IMMP, week 3) was 125 ± 8 %, the “Survival (percent of live animals)” value (LR.4 lymphoma; LR.4 + IMMP, week 3) was 100% and the “Body weight (control percent)” value (LR.4 lymphoma; LR.4 + IMMP, week 4) was 126 ± 8 %. The “Survival (percent of live animals)” value (LR.4 lymphoma; LR.4 + IMMP, week 4) was 100%, the “Body weight (control percent)” value (LR.4 lymphoma; LR.4 + IMMP, week 5) was 154 ± 11 % and the “Survival (percent of live animals)” value (LR.4 lymphoma; LR.4 + IMMP, week 5) was 100%. For the same substance, the “Body weight (control percent)” value (LR.4 lymphoma; LR.4 + IMMP, week 6) was 152 ± 12 %, the “Survival (percent of live animals)” value (LR.4 lymphoma; LR.4 + IMMP, week 6) was 100% and the “Body weight (control percent)” value (LR.4 lymphoma; LR.4 + IMMP, week 7) was 150 ± 11 %. The “Survival (percent of live animals)” value (LR.4 lymphoma; LR.4 + IMMP, week 7) was 100%, the “Survival (percent of live animals)” value (LR.4 lymphoma; LR.4 + IMMP, week 8) was 100% and the “Survival (percent of live animals)” value (LR.4 lymphoma; LR.4 + IMMP, week 9) was 67%. For the same substance, the “Survival (percent of live animals)” value (LR.4 lymphoma; LR.4 + IMMP, week 10) was 50%, the “Survival (percent of live animals)” value (LR.4 lymphoma; LR.4 + IMMP, week 11) was 34% and the “Survival (percent of live animals)” value (LR.4 lymphoma; LR.4 + IMMP, week 12) was 16%. The “Survival (percent of live animals)” value (LR.4 lymphoma; LR.4 + IMMP, week 13) was 16%, the “Survival (percent of live animals)” value (LR.4 lymphoma; LR.4 + IMMP, week 14) was 0% and the “Decrease of tumor growth” value (LR.4 lymphoma; last two weeks) was “about 33%”. For the same substance, the “Gain in survival at 50%” value (LR.4 lymphoma; mouse, in vivo) was “greater than 4 weeks”, the “Time all animals kept alive longer than the untreated group” value (LR.4 lymphoma; mouse, in vivo) was 5 weeks and the Corticosterone ([1]; IMMP alone) was 33.5 ± 2.1 ng/dL. The IL-1 ([1]; IMMP alone) was 6.9 ± 0.8 ng/dL, the “WEIGHT” value ([1]; IMMP alone, Table 22 (title: C57BL/6J mice with lymphoma LR.4)) was 13.8 ± 1.2 g and the IL-1 serum level [1, 2] was 6.9 ± 0.8 ng/dL. The “WEIGHT” value [1, 2] was 13.8 ± 1.2 g, the corticosterone serum level [1, 2] was 33.5 ± 2.1 ng/dL and the Corticosterone ([1]; STRESS + IMMP) was 43.1 ± 3.8 ng/dL. For the same substance, the IL-1 ([1]; STRESS + IMMP) was 18.1 ± 2.0 ng/dL, the “WEIGHT” value ([1]; STRESS + IMMP, Table 22 (title: C57BL/6J mice with lymphoma LR.4)) was 13.1 ± 0.9 g and the Body weight loss ([1]; stress + IMMP (36% without)) was 11%. For the same substance, the “Increase in corticosteroid production induced by stress” value ([1]; stress + IMMP (70% without)) was 38%, the “Increase of plasma IL-1 over control” value ([1]; stress + IMMP (three times without)) was “increased only once” and the “Reduction of tumor growth at long term” value (lymphoma LR.4; 10 doses for two weeks, from the fourth week) was “about 50%”. For the same substance, the “Body weight (control percent)” value (lymphoma LR.4; IMMP alone, no tumor, week 0) was 100 ± 3%, the “Body weight (control percent)” value (lymphoma LR.4; IMMP alone, no tumor, week 8) was 101 ± 3% and the “Body weight (control percent)” value (lymphoma LR.4; IMMP alone, no tumor, week 12) was 99 ± 4%. The “Body weight (control percent)” value (lymphoma LR.4; IMMP alone, no tumor, week 16) was 101 ± 4%, the “Body weight (control percent)” value (lymphoma LR.4; IMMP alone, no tumor, week 20) was 102 ± 3% and the “Body weight (control percent)” value (lymphoma LR.4; IMMP alone, no tumor, week 24) was 100 ± 3%. For the same substance, the “Body weight (control percent)” value (lymphoma LR.4; IMMP alone, no tumor, week 28) was 100 ± 2%, the “Body weight (control percent)” value (lymphoma LR.4; IMMP alone, no tumor, week 32) was 100 ± 5% and the “Body weight (control percent)” value (lymphoma LR.4; IMMP alone, no tumor, week ±4) was 102 ± 4%. For the same substance, the “Body weight (control percent)” value (lymphoma LR.4; LR.4 + IMMP, week 0, 200 ng/Kg i.p., ten doses) was 100 ± 2%, the “Body weight (control percent)” value (lymphoma LR.4; LR.4 + IMMP, week 8) was 106 ± 3 % and the “Body weight (control percent)” value (lymphoma LR.4; LR.4 + IMMP, week 12) was 118 ± 7 %. The “Body weight (control percent)” value (lymphoma LR.4; LR.4 + IMMP, week 16) was 120 ± 9 %, the “Body weight (control percent)” value (lymphoma LR.4; LR.4 + IMMP, week 20) was 119 ± 9 % and the “Body weight (control percent)” value (lymphoma LR.4; LR.4 + IMMP, week 24) was 120 ± 8 %. For the same substance, the “Body weight (control percent)” value (lymphoma LR.4; LR.4 + IMMP, week 28) was 119 ± 11 %, the “Body weight (control percent)” value (lymphoma LR.4; LR.4 + IMMP, week 32) was 120 ± 13 % and the “Body weight (control percent)” value (lymphoma LR.4; LR.4 + IMMP, week ±4) was 115 ± 5 %. The “Body weight relative to control” value (lymphoma LR.4; tumor + IMMP, thirty day (untreated 25% higher)) was “almost equal to that of the control”.

Source: patent US20150132328A1 (priority 2011, published 2015)
